# Reference: US12281107B2, “SET8 lysine methyltransferase inhibitor and preparation method and application thereof” (HAINAN YILING MEDICAL INDUSTRY & DEVELOPMENT Co., Ltd., priority 2019, dated 2025)
# Tests used:
# [1] = test system: liver cancer cell line HepG2; assay: CCK-8 cell proliferation inhibition test, HepG2; type: cell-based
# Procedure: (§1) 1. Experimental Method: […] cell line SH-SY5Y, colorectal cancer cell line SW480 and liver cancer cell line HepG2 are respectively cultured in an RPMI-1640 medium containing 10% calf serum at 37° C. in a 5% CO2 incubator. The […] method is adopted for cell proliferation inhibition test, and the main operation is as follows: taking the tumor cell line in the logarithmic phase, digesting with 0.25% trypsin, preparing an RPMI-1640 medium containing 10% newborn calf serum into a cell suspension of 6×10^4 cells/mL, and inoculating the cell suspension into a 96-well plate, with 100 μL per well. Culturing at 37° C. and 5% CO2 saturated humidity for 12 h. After adherence, absorbing the culture supernatants in the wells, and adding the sample solution prepared from the RPMI-1640 medium containing 1% calf serum to each well so that the final concentrations of the samples are 100 μM, 30 μM, 10 μM, 3 μM, 1 μM, and 0.3 μM respectively. With 3 wells in parallel for each concentration, continuing culturing for 48 h, then adding 10 μL of CCK-8 solution (Dalian Meilun, MA0218) to each well, and continuing incubating at 37° C. and 5% CO2 for 4 h. Selecting 470 nm on the enzyme-linked immunosorbent assay apparatus to measure the light absorption value of each well, and setting a blank group (only adding a culture solution containing cells) and a control group (using the culture solution to replace drugs) to calculate the cell proliferation inhibition rate. Inhibition rate (%)=(1−average OD value of 3 wells in experimental group/average OD value of 3 wells in control group)×100%. With the inhibition rate as an ordinate, a regression curve is drawn to calculate the IC50 value of the sample. Graphpad prism 7.0 software are adopted for data processing and statistical analysis by.
# [2] = molecular target: T1, lysine methyltransferase SET8 (Homo sapiens, UniProt Q9NQR1); assay: SET8 methyltransferase inhibitor screening assay kit (Cayman), fluorescence; type: biochemical; settings: incubation at 37° C. for 10 min; inhibitor concentration not given
# T1 construct: purchased Cayman Company
# T1 sequence (Q9NQR1 1-393): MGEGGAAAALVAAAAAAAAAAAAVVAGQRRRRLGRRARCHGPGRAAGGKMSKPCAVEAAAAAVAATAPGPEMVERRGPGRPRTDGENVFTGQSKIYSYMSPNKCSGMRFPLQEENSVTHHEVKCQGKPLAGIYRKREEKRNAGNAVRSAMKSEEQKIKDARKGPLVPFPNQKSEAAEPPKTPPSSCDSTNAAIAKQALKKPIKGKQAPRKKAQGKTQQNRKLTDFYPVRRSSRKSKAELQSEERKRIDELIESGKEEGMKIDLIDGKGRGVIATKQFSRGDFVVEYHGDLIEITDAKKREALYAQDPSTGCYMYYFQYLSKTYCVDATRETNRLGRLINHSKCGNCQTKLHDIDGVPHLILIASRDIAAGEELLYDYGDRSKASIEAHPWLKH
# Procedure: The steps of activity detection are completely based on the SET8 methyltransferase inhibitor screening assay kit of Cayman Company. In short, reagents in the kit are added to the 96-well plate to be tested according to the Table A below.
# Then 10 μL of SET8 albumen protein is added to each well, and the reaction begins. After incubation at 37° C. for 10 min, the fluorescence intensity (A) value is measured at the excitation wavelength of 535 nm and the […] of 590 nm. the inhibition rate of the compound is calculated according to the following formula: Inhibition rate %=(Anormal−Asample)/)Normal*100%, and the inhibition rate of each inhibitor on lysine methyltransferase is shown in Table 1.
# glioma cell line SH-SY5Y = assay: CCK-8 cell proliferation inhibition test, SH-SY5Y; type: cell-based; settings: Homo sapiens, 48 h
# Procedure: as §1
# [3] = test system: colorectal cancer cell line SW480; assay: CCK-8 cell proliferation inhibition test, SW480; type: cell-based
# Procedure: as §1
smiles,measurement,setting,value
COc1ccc(Cc2nc(C)n(C3CCN(C)CC3)n2)cc1 [Compound 20],IC % for 100 μM,"[1]; HepG2, 100 μM, 48 h",68.7%
same,tumor cell proliferation inhibitory activity (in words),"[1]; HepG2, summary of Table 2",good tumor cell proliferation inhibitory activity
same,IC50,"[1]; Homo sapiens, HepG2, 48 h, CCK-8",13.6 µM
same,Inhibition Rate (%),[2],76.9%
same,inhibition at 100 µM,"glioma cell line SH-SY5Y; 100 μM, read-out: IC % for 100 μM",84.7%
same,IC50,glioma cell line SH-SY5Y; CCK-8,10.4 µM
same,IC50,"[3]; Homo sapiens, SW480, 48 h, CCK-8",11.3 µM
same,IC % for 100 μM,"[3]; SW480, 100 μM, 48 h",79.6%
same,tumor cell proliferation inhibitory activity (in words),"[3]; SW480, summary of Table 2",good tumor cell proliferation inhibitory activity
